Measurements from patent publication US10730843B1, “Quinoxalines useful as cytoprotective agents” (priority 2019, dated 2020).

What was measured:
CSM14.1 neuronal cells = assay: Cell survival assay (thapsigargin-induced cell death, CELLTITER-GLO); type: cell-based; conditions: compound 2 hrs before about 15 μM thapsigargin, overnight (about 16 to 24 hrs), luminescence
Experimental: CSM14.1 neuronal cells were maintained in Complete Medium at 32° C.; wherein the Complete Medium contained Dulbecco's modified eagle medium (DMEM) with 10% fetal bovine serum (FSB), 1% L-glutamine, 100 IU/mL penicillin, and 100 μg/mL streptomycin. The cells were recovered from cultures by trypsinization and then seeded in 384 well plates (Greiner #781098) at a concentration of 1,000 cells/well in 20 μL of DMEM Assay Medium, wherein the DMEM Assay Medium contained 2% FBS, 100 IU/mL penicillin, and 100 μg/mL streptomycin. Seeding was performed using a MultiDrop Combi reagent broadcaster. The plates were incubated overnight at 32° C. A test compound was prepared by 2-fold serial dilution in 100% DMSO using a BIOMEK® 2000 liquid handler (Beckman Coulter). A dose-response curve containing 10 concentrations of the test compound was obtained. Using a BIOMEK® FX liquid handler (Beckman Coulter), 2.5 μL of the test compound was transferred from the 100% DMSO serial dilution plate to an intermediate plate containing 47.5 μL of DMEM Assay Medium containing 2% FBS, 100 IU/mL penicillin, and 100 μg/mL streptomycin and mixed. To reduce or eliminate the interference from the compound's precipitation, 6 μL of the diluted compound was immediately transferred to the assay plate to achieve a high compound concentration of 100 μM in 99% DMEM Assay Medium and 1% DMSO. After the assay plates were incubated for 2 hrs, 4 μL of 112.5 μM thapsigargin (TG) (DMSO stock diluted into Assay TC Medium) was dispensed into each testing well with a MultiDrop Combi reagent broadcaster for a final concentration of about 15 μM TG. The tissue culture media (4 μL) containing vehicle only was transferred manually to each control cell using a 16 channel electronic pipette. After the plates were incubated overnight (about 16 to 24 hrs), CELLTITER-GLO® (Promega) (16 μL) was added to all wells and luminescence was measured. High luminescence indicates cell survival. The biological results are summarized in Table 1 where A represents a cell viability EC50 less than or equal to 1 μM, B represents a value greater than 1 μM and less than 10 μM, and C represents a value equal to or greather than 10 μM and less than 20 μM.

[1] = system: Human embryonic kidney (HEK293) cells; mouse neuroblastoma (N2a) cells; assay: Cell rescue assay: protection against thapsigargin (TG)-induced cell-death (ALAMARBLUE); type: cell-based; conditions: compound at 20 μM, 2 hrs before thapsigargin (15 μM for HEK293 cells, 1 μM for N2a cells), 24 hrs; viability as % RFU compared to control; cell line not given; read-out: Cell Survival %
Experimental: Protection against Thapsigargin (TG)-induced Cell-death. Human embryonic kidney (HEK293) cells were grown in Dulbecco's Modified Eagle's Medium (DMEM) with 10% FBS and 1% antibiotic antimycotic solution (ABAM). Mouse neuroblastoma (N2a) cells were grown in 1:1 DMEM:OPTI-MEM® with 5% FBS and 1% ABAM. All cells were grown in 10% CO2 in a humidified environment of the incubator. Cells grown in 96-well plates were exposed to a test compound (20 μM) for 2 hrs before addition of thapsigargin (15 μM for HEK293 cells and 1 μM for N2a cells) to induce ER stress. After incubation in cell-culture incubator for 24 hrs, ALAMARBLUE® regent (10% v/v) was added to the wells. Fluorescence reading was taken 2 hrs after the addition of the ALAMARBLUE® regent. Cell-viability was calculated as a percentage of relative fluorescence unit (RFU) compared to control. […] The biological results are summarized in Table 2, where each compound was tested at 20 μM and where A represents a viability greater than or equal to 50%, B represents a viability greather than 20% and less than 50%, and C represents a value from 10% to 20%.

Human SH-SY5Y cells = assay: Cell rescue assay: protection against ß-amyloid-induced cell toxicity; type: cell-based; conditions: 96 h, 7.5 uM compound, AB1-42 at 10 uM, 4 days, % cell rescue, read-out: Cell Survival %
Experimental: Protection against ß-amyloid-induced cell toxicity. Chonpathompikunlert et al. Eu. J. Pharmacol. 2011, 650, 544-549. Human SH-SY5Y cells are suspended in media containing 2% FBS and 2× Gentamicin. Transfer 100 ul/well culture to 96-well plate (20,000 cells/well; passage #5) and incubate overnight. Prepare compound samples at 30 uM. Add 50 ul of the samples to the cells [[…]] and incubate 3 hours. Make stock of 40 uM AB1-42 peptide in assay media. Transfer 50 ul/well to cells/compounds in assay plate. The final assay volume is 200 ul/well, containing 2% FBS, 2× Gentamicin, 7.5 uM compound and AB1-42 at 10 uM. Incubate for 4 days then add 20 ul of Promega Substrate Cell Titer 96 Aqueous One Solution Reagent to each well. Incubate 37° C. and read OD at 490 nm. The results are summarized in Table 3, where A represents a value equal to or greater than 50% cell rescue, B represents a value greater than 20% and less than 50% cell rescue, and C represents a value greater than 10% and less than or equal to 20% cell rescue.

SERCA = target: T1, SERCA (Homo sapiens, UniProt P16615); assay: Ca-ATPase assay (NADH-linked, enzyme-coupled ATPase assay); type: biochemical; conditions: microsomal preparations from HEK 293 cells; Vmax from fit of ATPase calcium-dependence to the Hill function, relative to controls
T1 construct: microsomal preparations from HEK 293 cells; endogenous in cells; host or cells: HEK 293 cells (microsomal preparation)
Experimental: A Ca-ATPase assay was performed using microsomal preparations from HEK 293 cells at a series of calcium concentrations corresponding to the physiological range, relative to controls. The ATP hydrolysis rate was measured over a range of calcium concentrations in the presence of test compounds using an NADH-linked, enzyme-coupled ATPase assay adapted for 96-well microplates, with Vmax determined by fitting the ATPase calcium-dependence to the Hill function. Each well contained 2 μg or 7 μg of SR vesicles (optimized for skeletal or cardiac SR, respectively), 50 mM MOPS (pH 7.0), 100 mM KCl, 5 mM MgCl2, 1 mM EGTA, 0.2 mM NADH, 1 mM phosphoenol pyruvate, 5 IU pyruvate kinase, 5 IU lactate dehydrogenase, and 3.5 μg/mL A23187 (a calcium ionophore). CaCl2 was added to set free [Ca^2+] to the specific values. The assay was started upon addition of ATP at a final concentration of 5 mM, and read in a SpectraMax Plus microplate spectrophotometer. The results are summarized in Table 4, where A represents an increase in SERCA Vmax greater than or equal to 50% and B represents a value greater than 10% and less than 50%.

Ob/ob mice = assay: Effect of a SERCA agonist on the level of blood glucose; type: in vivo; conditions: Mus musculus, ip, 96 h, 50 mg/kg i.p. once a day for 5 days, fasting glucose at baseline and 4 days after administration, read-out: Glucose level reduction
Experimental: Ob/ob mice (10 weeks old, n=7) were intraperitoneally (i.p.) injected with 100 μL of a solution containing 0 (vehicle) or 50 mg/kg of a test compound once a day for a total of 5 days. Fasting glucose was measured at baseline and 4 days after the administration of the test compound. Glucose levels were measured in blood samples drawn from the tail vein using a handheld glucose sensor. Compound effects on blood glucose are shown in Table 5 where A represents a 10-20% reduction in blood glucose, B represents a 21-30% reduction in blood glucose, and C represents a greather than 30% reduction in blood glucose levels.

T1 sequence (P16615 whole entry): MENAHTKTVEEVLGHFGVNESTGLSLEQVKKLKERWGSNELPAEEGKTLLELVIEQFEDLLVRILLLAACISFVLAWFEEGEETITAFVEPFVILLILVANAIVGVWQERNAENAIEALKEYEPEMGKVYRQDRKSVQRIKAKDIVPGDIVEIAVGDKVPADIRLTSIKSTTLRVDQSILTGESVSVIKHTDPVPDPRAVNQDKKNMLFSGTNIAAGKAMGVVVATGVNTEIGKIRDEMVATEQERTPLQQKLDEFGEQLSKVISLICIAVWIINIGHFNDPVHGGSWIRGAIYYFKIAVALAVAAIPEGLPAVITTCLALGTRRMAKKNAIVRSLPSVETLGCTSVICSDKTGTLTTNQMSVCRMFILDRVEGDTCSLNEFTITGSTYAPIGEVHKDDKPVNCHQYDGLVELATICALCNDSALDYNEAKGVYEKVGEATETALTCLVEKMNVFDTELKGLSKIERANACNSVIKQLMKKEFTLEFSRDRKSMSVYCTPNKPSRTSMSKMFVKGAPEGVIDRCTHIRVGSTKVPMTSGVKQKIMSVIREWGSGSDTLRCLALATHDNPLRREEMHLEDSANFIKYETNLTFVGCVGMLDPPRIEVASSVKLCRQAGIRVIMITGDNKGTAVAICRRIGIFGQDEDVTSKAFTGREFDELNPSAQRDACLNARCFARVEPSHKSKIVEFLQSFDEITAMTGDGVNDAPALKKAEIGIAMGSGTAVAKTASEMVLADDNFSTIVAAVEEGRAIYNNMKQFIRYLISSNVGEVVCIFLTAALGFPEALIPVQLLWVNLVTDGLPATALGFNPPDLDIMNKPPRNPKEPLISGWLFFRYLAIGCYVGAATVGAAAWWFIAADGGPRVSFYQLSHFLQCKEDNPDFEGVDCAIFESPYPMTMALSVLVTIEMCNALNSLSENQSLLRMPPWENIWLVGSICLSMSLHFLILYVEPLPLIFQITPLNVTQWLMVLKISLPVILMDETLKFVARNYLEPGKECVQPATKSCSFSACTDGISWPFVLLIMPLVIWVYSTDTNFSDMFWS

Row | SMILES | EC50 (CSM14.1 neuronal cells) [µM] | viability at 20 µM [1] [%] | viability at 7.5 µM (Human SH-SY5Y cells) [%] | SERCA Vmax Increase (SERCA) | inhibition in vivo at 50 mg/kg (Ob/ob mice) [%]
1 | CC(C)Oc1ccc(C(=O)Nc2cccc3nccnc23)cc1 [A1, 4-Isopropoxy-N-(quinoxalin-5-yl)benzamide] | 1 to 10 | 20 to 50 | ≥ 50 | A (A represents an increase in SERCA Vmax greater than or equal to 50%) | 21 to 30
2 | O=C(Nc1cccc2nccnc12)c1cc(Br)cs1 [A2, 4-Bromo-N-(quinoxalin-5-yl)thiophene-2-carboxamide] | 1 to 10 | 20 to 50 | 10 to 20 | B (B represents a value greater than 10% and less than 50%) | 21 to 30
3 | O=C(Nc1cccc2nccnc12)c1ccc(Br)s1 [A3, 5-Bromo-N-(quinoxalin-5-yl)thiophene-2-carboxamide] | 10 to 20 | 10 to 20 | 20 to 50 | A (A represents an increase in SERCA Vmax greater than or equal to 50%) | 10 to 20
4 | Cc1ccc(C(=O)Nc2cccc3nccnc23)s1 [A4, 5-Methyl-N-(quinoxalin-5-yl)thiophene-2-carboxamide] | 1 to 10 | ≥ 50 | ≥ 50 | A (A represents an increase in SERCA Vmax greater than or equal to 50%) | 10 to 20
5 | O=C(Nc1cccc2nccnc12)c1cccs1 [A5, N-(Quinoxalin-5-yl)thiophene-2-carboxamide] | 10 to 20 | 10 to 20 | 20 to 50 | A (A represents an increase in SERCA Vmax greater than or equal to 50%) | > 30
6 | O=C(Nc1cccc2nccnc12)c1cc2ccccc2s1 [A6, N-(Quinoxalin-5-yl)benzo[b]thiophene-2-carboxamide] | 1 to 10 | 10 to 20 | 20 to 50 | B (B represents a value greater than 10% and less than 50%) | 10 to 20
7 | O=C(Nc1cccc2nccnc12)c1ccc(Cl)cc1 [A7, 4-Chloro-N-(quinoxalin-5-yl)benzamide] | ≤ 1 | ≥ 50 | 20 to 50 | B (B represents a value greater than 10% and less than 50%) | 10 to 20
8 | CC(C)Oc1cccc(C(=O)Nc2cccc3nccnc23)c1 [A8, 3-Isopropoxy-N-(quinoxalin-5-yl)benzamide] | 10 to 20 | 20 to 50 | 20 to 50 | B (B represents a value greater than 10% and less than 50%) | 21 to 30
9 | O=C(Nc1cccc2nccnc12)c1ccc(C(F)(F)F)cc1 [A9, N-(quinoxalin-5-yl)-4-(trifluoromethyl)benzamide] | ≤ 1 | 20 to 50 | 10 to 20 | A (A represents an increase in SERCA Vmax greater than or equal to 50%) | 21 to 30
10 | O=C(Nc1cccc2nccnc12)c1cccc(F)c1 [A10, 3-fluoro-N-(quinoxalin-5-yl)benzamide] | 1 to 10 | 10 to 20 | 20 to 50 | A (A represents an increase in SERCA Vmax greater than or equal to 50%) | > 30
